What was measured:
Format in all cases: in vivo
Amaranthus retroflexus [1] = test: Pre-emergence herbicidal action against AMARE; conditions: visual score after 3 weeks vs untreated controls
Procedure, shortened: (§1)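 Sandy loam pots, seeds covered with soil, then surface-treated with WP or EC formulations at 600–800 l/ha water plus 0.2% wetting agent. Greenhouse, 3 weeks. Percent damage vs untreated controls.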

Alopecurus myosuroides [2] = test: Post-emergence herbicidal action against ALOMY
Procedure, shortened: (§2)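 Visual % rating (0% = as untreated, 100% = dead) ~3 wk after spraying one-leaf-stage plants grown in sandy loam; WP/EC in water at 600–800 l/ha, 0.2% wetting agent.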

Polygonum convolvulus = test: Pre-emergence herbicidal action against POLCO
Procedure, shortened: as §1

Avena fatua [3] = test: Post-emergence herbicidal action against AVEFA; conditions: visual assessment about 3 weeks after treatment
Procedure, shortened: as §2

Amaranthus retroflexus [4] = test: Post-emergence herbicidal action against AMARE; conditions: visual assessment about 3 weeks after treatment
Procedure, shortened: as §2

Echinochloa crus-galli [5] = test: Pre-emergence herbicidal action against ECHCG; conditions: visual score after 3 weeks vs untreated controls
Procedure, shortened: as §1

Abutilon theophrasti [6] = test: Post-emergence herbicidal action against ABUTH
Procedure, shortened: as §2

Veronica persica [7] = test: Post-emergence herbicidal action against VERPE; conditions: visual assessment about 3 weeks after treatment
Procedure, shortened: as §2

Pharbitis purpurea [8] = test: Pre-emergence herbicidal action against PHBPU; conditions: 80 g/ha; visual score after 3 weeks vs untreated controls
Text: (§3) Seeds of monocotyledonous and dicotyledonous weed plants and crop plants are laid out in sandy loam soil in wood-fiber pots and covered with soil. The compounds of the invention, formulated in the form of wettable powders (WP) or as emulsion concentrates (EC), are then applied to the surface of the covering soil in the form of an aqueous suspension or emulsion at a water application rate equivalent to 600 to 800 l/ha, with addition of 0.2% wetting agent. After the treatment, the pots are placed in a greenhouse and kept under good growth conditions for the trial plants. The damage to the test plants is scored visually after a test period of 3 weeks by comparison with untreated controls (herbicidal activity in percent (%): 100% activity=the plants have died, 0% activity=like control plants). […] The tables below illustrate, in an illustrative manner, the post-emergence herbicidal action of the compounds of the invention, the herbicidal activity being stated in percent.

Alopecurus myosuroides [9] = test: Pre-emergence herbicidal action against ALOMY; conditions: visual score after 3 weeks vs untreated controls
Procedure, shortened: as §1

Matricaria inodora [10] = test: Pre-emergence herbicidal action against MATIN; conditions: visual score after 3 weeks vs untreated controls
Procedure, shortened: as §1

Lolium rigidum = test: Pre-emergence herbicidal action against LOLRI
Procedure, shortened: as §1

Matricaria inodora [11] = test: Post-emergence herbicidal action against MATIN; conditions: visual assessment about 3 weeks after treatment
Procedure, shortened: as §2

Setaria viridis [12] = test: Pre-emergence herbicidal action against SETVI
Procedure, shortened: as §1

Setaria viridis [13] = test: Post-emergence herbicidal action against SETVI; conditions: visual assessment about 3 weeks after treatment
Procedure, shortened: as §2

Abutilon theophrasti [14] = test: Pre-emergence herbicidal action against ABUTH; conditions: visual score after 3 weeks vs untreated controls
Procedure, shortened: as §1

Viola tricolor [15] = test: Pre-emergence herbicidal action against VIOTR
Procedure, shortened: as §1

Veronica persica [16] = test: Pre-emergence herbicidal action against VERPE
Procedure, shortened: as §1

Digitaria sanguinalis = test: Post-emergence herbicidal action against DIGSA
Procedure, shortened: as §2

Avena fatua [17] = test: Pre-emergence herbicidal action against AVEFA; conditions: visual score after 3 weeks vs untreated controls
Procedure, shortened: as §1

Pharbitis purpurea [18] = test: Post-emergence herbicidal action against PHBPU; conditions: visual assessment about 3 weeks after treatment
Procedure, shortened: as §2

Viola tricolor [19] = test: Post-emergence herbicidal action against VIOTR
Procedure, shortened: as §2

Cyperus esculentus = test: Pre-emergence herbicidal action against CYPES; conditions: visual score after 3 weeks vs untreated controls
Text: as §3

Stellaria media [20] = test: Pre-emergence herbicidal action against STEME
Text: as §3

Hordeum murinum [21] = test: Pre-emergence herbicidal action against HORMU; conditions: 320 g/ha; visual score after 3 weeks vs untreated controls
Text: as §3

Hordeum murinum [22] = test: Post-emergence herbicidal action against HORMU; conditions: 80 g/ha
Experimental: (§4) Seeds of monocotyledonous and dicotyledonous weed and crop plants are laid out in sandy loam soil in wood-fiber pots, covered with soil and cultivated in a greenhouse under good growth conditions. 2 to 3 weeks after sowing, the test plants are treated at the one-leaf stage. The compounds of the invention, formulated in the form of wettable powders (WP) or as emulsion concentrates (EC), are then sprayed onto the green parts of the plants in the form of an aqueous suspension or emulsion at a water application rate equivalent to 600 to 800 l/ha, with addition of 0.2% wetting agent. After the test plants have been left to stand in the greenhouse under optimal growth conditions for about 3 weeks, the action of the preparations is assessed visually in comparison to untreated controls (herbicidal action in percent (%): 100% activity=the plants have died, 0% activity=like control plants). […] The tables below illustrate, in an illustrative manner, the post-emergence herbicidal action of the compounds of the invention, the herbicidal activity being stated in percent.

Stellaria media [23] = test: Post-emergence herbicidal action against STEME; conditions: visual assessment about 3 weeks after treatment
Experimental: as §4

Echinochloa crus-galli [24] = test: Post-emergence herbicidal action against ECHCG; conditions: visual assessment about 3 weeks after treatment
Procedure, shortened: as §2

CCN(CC)C(=O)c1c(C(F)F)ccc(C(=O)Nc2nnnn2C)c1Cl [Example 1-166]
Pre-emergence action against AMARE (Amaranthus retroflexus [1]; 20 g/ha): 100% | Pre-emergence action against AMARE (Amaranthus retroflexus [1]; 80 g/ha): 100% | Post-emergence action against ALOMY (Alopecurus myosuroides [2]; 5 g/ha): 80% | Post-emergence action against ALOMY (Alopecurus myosuroides [2]; 20 g/ha): 80% | Pre-emergence action against POLCO (Polygonum convolvulus; 80 g/ha): 80% | Post-emergence action against AVEFA in % (Avena fatua [3]; 20 g/ha): 80% | Post-emergence action against AMARE in % (Amaranthus retroflexus [4]; 5 g/ha): 100% | Post-emergence action against AMARE in % (Amaranthus retroflexus [4]; 20 g/ha): 100% | Pre-emergence action against ECHCG (Echinochloa crus-galli [5]; 80 g/ha): 100% | Post-emergence action against ABUTH (Abutilon theophrasti [6]; 5 g/ha): 80% | Post-emergence action against ABUTH (Abutilon theophrasti [6]; 20 g/ha): 90% | Post-emergence action against VERPE in % (Veronica persica [7]; 20 g/ha): 80% | Pre-emergence action against PHBPU (Pharbitis purpurea [8]): 90% | Pre-emergence action against ALOMY (Alopecurus myosuroides [9]; 80 g/ha): 90% | Pre-emergence action against MATIN (Matricaria inodora [10]; 20 g/ha): 90% | Pre-emergence action against MATIN (Matricaria inodora [10]; 80 g/ha): 90% | Pre-emergence action against LOLRI (Lolium rigidum; 80 g/ha): 80% | Post-emergence action against MATIN in % (Matricaria inodora [11]; 5 g/ha): 80% | Post-emergence action against MATIN in % (Matricaria inodora [11]; 20 g/ha): 90% | Pre-emergence action against SETVI (Setaria viridis [12]; 80 g/ha): 100% | Post-emergence action against SETVI in % (Setaria viridis [13]; 5 g/ha): 80% | Post-emergence action against SETVI in % (Setaria viridis [13]; 20 g/ha): 100% | Pre-emergence action against ABUTH (Abutilon theophrasti [14]; 20 g/ha): 100% | Pre-emergence action against ABUTH (Abutilon theophrasti [14]; 80 g/ha): 100% | Pre-emergence action against VIOTR (Viola tricolor [15]; 80 g/ha): 100% | Pre-emergence action against VERPE (Veronica persica [16]; 80 g/ha): 100% | Post-emergence action against DIGSA in % (Digitaria sanguinalis; 5 g/ha): 90% | Post-emergence action against DIGSA in % (Digitaria sanguinalis; 20 g/ha): 90% | Pre-emergence action against AVEFA (Avena fatua [17]; 80 g/ha): 90% | Post-emergence action against PHBPU in % (Pharbitis purpurea [18]; 5 g/ha): 90% | Post-emergence action against PHBPU in % (Pharbitis purpurea [18]; 20 g/ha): 90% | Post-emergence action against VIOTR in % (Viola tricolor [19]; 20 g/ha): 80%

CN(C(=O)c1c(Cl)ccc(C(=O)Nc2nnnn2C)c1Cl)c1ccccc1 [Example 1-398]
Pre-emergence action against AMARE (Amaranthus retroflexus [1]; 20 g/ha): 90% | Pre-emergence action against AMARE (Amaranthus retroflexus [1]; 80 g/ha): 100% | Pre-emergence action against AMARE (Amaranthus retroflexus [1]; 320 g/ha): 100% | Post-emergence action against ALOMY (Alopecurus myosuroides [2]; 80 g/ha): 100% | Pre-emergence action against POLCO (Polygonum convolvulus; 320 g/ha): 100% | Post-emergence action against AVEFA in % (Avena fatua [3]; 80 g/ha): 80% | Pre-emergence action against CYPES (Cyperus esculentus; 80 g/ha): 80% | Pre-emergence action against CYPES (Cyperus esculentus; 320 g/ha): 90% | Pre-emergence action against STEME (Stellaria media [20]; 20 g/ha): 90% | Pre-emergence action against STEME (Stellaria media [20]; 80 g/ha): 100% | Pre-emergence action against STEME (Stellaria media [20]; 320 g/ha): 100% | Post-emergence action against AMARE in % (Amaranthus retroflexus [4]; 5 g/ha): 80% | Post-emergence action against AMARE in % (Amaranthus retroflexus [4]; 20 g/ha): 100% | Post-emergence action against AMARE in % (Amaranthus retroflexus [4]; 80 g/ha): 100% | Pre-emergence action against ECHCG (Echinochloa crus-galli [5]; 80 g/ha): 80% | Pre-emergence action against ECHCG (Echinochloa crus-galli [5]; 320 g/ha): 100% | Post-emergence action against ABUTH (Abutilon theophrasti [6]; 20 g/ha): 100% | Post-emergence action against ABUTH (Abutilon theophrasti [6]; 80 g/ha): 100% | Post-emergence action against VERPE in % (Veronica persica [7]; 20 g/ha): 80% | Post-emergence action against VERPE in % (Veronica persica [7]; 80 g/ha): 90% | Pre-emergence action against ALOMY (Alopecurus myosuroides [9]; 20 g/ha): 80% | Pre-emergence action against ALOMY (Alopecurus myosuroides [9]; 80 g/ha): 100% | Pre-emergence action against ALOMY (Alopecurus myosuroides [9]; 320 g/ha): 100% | Pre-emergence action against MATIN (Matricaria inodora [10]; 20 g/ha): 90% | Pre-emergence action against MATIN (Matricaria inodora [10]; 80 g/ha): 100% | Pre-emergence action against MATIN (Matricaria inodora [10]; 320 g/ha): 100% | Pre-emergence action against LOLRI (Lolium rigidum; 320 g/ha): 90% | Post-emergence action against MATIN in % (Matricaria inodora [11]; 80 g/ha): 90% | Pre-emergence action against SETVI (Setaria viridis [12]; 80 g/ha): 100% | Pre-emergence action against SETVI (Setaria viridis [12]; 320 g/ha): 100% | Pre-emergence action against HORMU (Hordeum murinum [21]): 100% | Post-emergence action against SETVI in % (Setaria viridis [13]; 80 g/ha): 100% | Post-emergence action against HORMU in % (Hordeum murinum [22]): 80% | Pre-emergence action against ABUTH (Abutilon theophrasti [14]; 20 g/ha): 100% | Pre-emergence action against ABUTH (Abutilon theophrasti [14]; 80 g/ha): 100% | Pre-emergence action against ABUTH (Abutilon theophrasti [14]; Dosage column 320 g/ha (heading prints 3200 g/ha)): 100% | Post-emergence action against STEME in % (Stellaria media [23]; 5 g/ha): 80% | Post-emergence action against STEME in % (Stellaria media [23]; 20 g/ha): 90% | Post-emergence action against STEME in % (Stellaria media [23]; 80 g/ha): 100% | Pre-emergence action against VIOTR (Viola tricolor [15]; 80 g/ha): 80% | Pre-emergence action against VIOTR (Viola tricolor [15]; 320 g/ha): 100% | Pre-emergence action against VERPE (Veronica persica [16]; 320 g/ha): 100% | Pre-emergence action against AVEFA (Avena fatua [17]; 80 g/ha): 80% | Pre-emergence action against AVEFA (Avena fatua [17]; 320 g/ha): 90% | Post-emergence action against ECHCG in % (Echinochloa crus-galli [24]; 20 g/ha): 100% | Post-emergence action against ECHCG in % (Echinochloa crus-galli [24]; 80 g/ha): 100% | Post-emergence action against PHBPU in % (Pharbitis purpurea [18]; 20 g/ha): 80% | Post-emergence action against PHBPU in % (Pharbitis purpurea [18]; 80 g/ha): 80% | Post-emergence action against VIOTR in % (Viola tricolor [19]; 80 g/ha): 90%

From patent US12599136B2, “Substituted isophthalic acid diamides and their use as herbicides” (Bayer Aktiengesellschaft, priority 2020, dated 2026)
